{
  "source": "patent US7271158B2",
  "about": "“Treatment of rumen acidosis with α-amylase inhibitors” (Pfizer Inc., priority 2000, dated 2007)",
  "key": {"[1]": {"system": "rumen fluid fermentation (RUSITEC chronic acidosis model)", "assay": "RUSITEC rumen simulation, chronic acidosis model: acarbose", "assay_type": "cell-based, Guernsey cow", "conditions": "for increase in butyrate production: between control and treatment periods (0 mg/vessel/d: 24%); for change in VFA production: treatment period vs preceding control period (0 mg/vessel/d: −3%)", "excerpt": "Evaluation of Agents Using the Rumen Simulation Technique ([…]) to Model Chronic Acidosis. The in vitro rumen simulation technique ([…]), first described by Czerkawski and Breckenridge (1977) was used to evaluate the effect of the bacterial α-amylase and/or α-glucosidase inhibitor acarbose on daily pH profiles and VFA production using a commercial cattle concentrate ration (GH313-see later). […] Equipment: The apparatus consisted of two […] units each containing four-fermentation vessels. […] The feed was placed in a nylon bag (14×9 cm, 50 μm), and was gently agitated using a piston mechanism (8 strokes/min). Buffer (McDougall, 1948) was continuously infused at a rate of approximately 750 ml/day by an eight channel peristaltic pump (Watson Marlow). The effluent was collected in 1 liter glass bottles containing 20 ml of oxalic acid solution (12 g/100 ml in deionised water). This was added to inhibit further microbial activity Feed: Each vessel was fed daily with a bag containing 30 g of the commercial pelleted ration GH313 (89% dry matter) and 2.5 g barley straw (90% dry matter) chopped into 1-2 cm lengths. 7 g of corn starch (Sigma Cal. No. S4126) was added to the liquid phase of all fermenter vessels at feeding on the last four days of the experiment to simulate acute acidosis. Rumen fluid donor: Rumen fluid was collected from a five year old dry Guernsey cow. […] Rumen contents were collected via a rumen fistula (Bar Diamond Inc. P.O. Box. 60. Bar Diamond Lane. Parma. Id. 83660-0060. U.S.A) Vessel inoculation: Rumen contents were taken from the fistulated donor animal at 08:00 h (before the morning feed). The material was carried to the laboratory in pre-warmed insulated flasks, and then strained through four layers of cotton gauze into another pre-warmed insulated flask. 70 g of the solid residue were weighed into each of eight nylon bags. One bag containing rumen solids, and one bag containing fresh feed was placed in the feed chamber for each vessel. The liquid contents of each vessel were 100 ml deionised water, 200 ml of buffer artificial and 500 ml of rumen fluid. After assembling and sealing the vessels, they were placed in the water baths and the piston rod attached to the drive bar. The effluent tubes were placed in the collection flasks. The head space in each vessel was flushed with CO2 for 2 min., then the piston drive motor and buffer infusion pump were started. Daily maintenance and sampling procedure: These procedures were carried out at the same time each day. Eight feed bags were prepared, and a 1 l dispenser bottle containing infusion buffer warmed to 39° C. Treatment with acarbose: Acarbose was obtained as GlucobayTM tablets (Bayer, AAH Pharmaceuticals) Each tablet contains 100 mg acarbose. Duplicate vessels were treated with 0, 1, 10 and 100 mg/d of acarbose by adding 1 tablet to each of two feed bags to give 100 mg/vessel/d. The lower doses were prepared by dissolving/suspending a tablet in 10 ml buffer (giving a 10 mg/ml solution of acarbose). One ml of this solution was then added to 9 ml of buffer, giving a 1 mg/ml solution. One ml of each solution was then added to the contents of two feed bags, to give 10 and 1 mg/vessel/d. Finally, the acarbose was dried on to the feed by leaving the bags at room temperature overnight. Analyses: Dry matter losses from the nylon bags after 48 hours incubation were measured by drying the washed bag contents in an oven for 23 h at 65° C. Effluent samples (10 ml) were taken daily and stored at -20° C. for subsequent VFA and lactate analysis .pH was automatically recorded at 17 min. intervals using equipment supplied by Philip Harris Education. A combination electrode was fitted in each vessel via a gas-tight port in the lid. […] The recorded pH values were downloaded to a PC running […] 32 software (Philip Harris Education) and then transferred to a spreadsheet for further analysis. […]"}, "E. faecium": {"system": "E. faecium", "assay": "Minimum inhibitory concentrations in aerobes (agar dilution)"}, "Salm. enteritidis": {"system": "Salm. enteritidis", "assay": "Minimum inhibitory concentrations in aerobes (agar dilution)"}, "[2]": {"system": "chronic rumen acidosis induced in fistulated cattle", "assay": "In vivo testing in fistulated cattle (induced chronic rumen acidosis)", "parameters": "species or system Hereford×Friesian steers", "conditions": "4.0 g/trt through fistula", "excerpt": "In Vivo Testing in Fistulated Cattle Objective: To determine the effect of the agent for testing, in this case acarbose, on chronic rumen acidosis induced in fistulated cattle. A rumen pH profile representative of chronic acidosis was induced by stepwise increase in the level of concentrate feeding of a specified diet and a reduction in the roughage offered. This was followed by treatment of each animal with acarbose, administered via a permanent rumen fistula, to assess its ability to normalise rumen pH. Experimental Animals: Six fistulated Hereford×Friesian steers, weighing 170-230 kgs (supplied by […] Calves Ltd. […], Ceredigion) Treatment: Glucobay® 100. Acarbose 100 mgs per tablet. Management: The cattle were fed GH651 cattle high cereal beef pellets (variable amount) with barley straw (variable amount) divided over two equal feeds, given at around 08.00 hr and 14.30 hr each day. Precise feeding times were recorded. Water was available ad-lib. Cattle were individually housed in pens (9 square meters per pen) in a building environmentally controlled to 16° C. [table] While chronic acidosis was being induced, manual pH measurements were taken approximately 5 and 8 hours post-morning feed. Rumen fluid samples were taken for VFA and lactate analysis. […] First Sense Recorder). […] Rumen fluid samples (10 ml) were taken twice daily for measurement of VFA levels, molar ratios and lactate levels. These were collected (by manually removing a sample of rumen content with a small stainless […], filtering and transferring to a 10 ml polypropylene vial) just before acarbose was added to the rumen at both dosing times. The pH probes were removed for cleaning and recalibration immediately pre-morning feed. Results: The daily pH curves were used to calculate the period that rumen pH was below pH 5.5, and therefore indicative of chronic acidosis."}, "[3]": {"target": "rumen fluid supernatant amylases", "assay": "Rumen bacterial amylase assay, protocol 2 (amylose azure)", "conditions": "read-out: Average IC50, rumen fluid amylase screen"}},
  "data": [
    {"smiles": "CC1OC(OC2C(CO)OC(OC3C(CO)OC(O)C(O)C3O)C(O)C2O)C(O)C(O)C1NC1C=C(CO)C(O)C(O)C1O", "note": "(stereo not shown) [Acarbose, acarbose]", "values": [
      {"measurement": "increase in butyrate production", "setting": "[1]; 1 mg/vessel/d", "value": 27, "unit": "%"},
      {"measurement": "change in VFA production", "setting": "[1]; 1 mg/vessel/d", "value": "+3%"},
      {"measurement": "increase in butyrate production", "setting": "[1]; 10 mg/vessel/d", "value": 76, "unit": "%"},
      {"measurement": "change in VFA production", "setting": "[1]; 10 mg/vessel/d", "value": "−10", "unit": "%"},
      {"measurement": "increase in butyrate production", "setting": "[1]; 100 mg/vessel/d", "value": 134, "unit": "%"},
      {"measurement": "change in VFA production", "setting": "[1]; 100 mg/vessel/d", "value": "−16", "unit": "%"},
      {"measurement": "MIC", "setting": "E. faecium; E. faecium 1.1.6", "value": ">128", "unit": "µg/mL"},
      {"measurement": "MIC", "setting": "E. faecium; E. faecium 1.2.4", "value": ">128", "unit": "µg/mL"},
      {"measurement": "MIC", "setting": "E. faecium; E. faecium 1.2.6", "value": ">128", "unit": "µg/mL"},
      {"measurement": "MIC", "setting": "E. faecium; E. faecium 3.1", "value": ">128", "unit": "µg/mL"},
      {"measurement": "MIC", "setting": "E. faecium; E. faecium 4.5", "value": ">128", "unit": "µg/mL"},
      {"measurement": "MIC", "setting": "E. faecium; E. faecium 5.4", "value": ">128", "unit": "µg/mL"},
      {"measurement": "MIC", "setting": "E. faecium; E. faecium 10.1", "value": ">128", "unit": "µg/mL"},
      {"measurement": "MIC", "setting": "E. faecium; E. faecium 28.6.7", "value": ">128", "unit": "µg/mL"},
      {"measurement": "MIC", "setting": "E. faecium; E. faecium 28.7.7", "value": ">128", "unit": "µg/mL"},
      {"measurement": "MIC", "setting": "E. faecium; Enterococcus faecium", "value": "> 128", "unit": "µg/mL"},
      {"measurement": "MIC", "setting": "Salm. enteritidis; Salm. enteritidis B1218", "value": ">128", "unit": "µg/mL"},
      {"measurement": "MIC", "setting": "Salm. enteritidis; Salm. enteritidis B1227", "value": ">128", "unit": "µg/mL"},
      {"measurement": "MIC", "setting": "Salm. enteritidis; Salm. enteritidis B1231", "value": ">128", "unit": "µg/mL"},
      {"measurement": "MIC", "setting": "Salm. enteritidis; Salm. enteritidis B1232", "value": ">128", "unit": "µg/mL"},
      {"measurement": "MIC", "setting": "Salm. enteritidis; Salm. enteritidis B1233", "value": ">128", "unit": "µg/mL"},
      {"measurement": "MIC", "setting": "Salm. enteritidis; Salm. enteritidis B1235", "value": ">128", "unit": "µg/mL"},
      {"measurement": "MIC", "setting": "Salm. enteritidis; Salm. enteritidis B1240", "value": ">128", "unit": "µg/mL"},
      {"measurement": "MIC", "setting": "Salm. enteritidis; Salmonella enterica, ENTERITIDIS", "value": "> 128", "unit": "µg/mL"},
      {"measurement": "total VFA concentrations in rumen fluid", "setting": "[2]; 13:00 samples, treatment vs control phase", "value": "little difference"},
      {"measurement": "VFA concentration in rumen fluid", "setting": "[2]; 14:00 samples, during the treatment period", "value": "fell"},
      {"measurement": "percentage of propionate in rumen fluid", "setting": "[2]; all sampling times, during the treatment period", "value": "lower"},
      {"measurement": "IC50", "setting": "[3]", "value": 2.39, "unit": "µM"}
    ]}
  ]
}
